# Test results as given in PubChem BioAssay AID330 (DTP/NCI, 2004).
# Several values for one entry are separate records, joined by “and”; a condition that tells them apart may be missing. Equal values may be shown once. Toxic doses and inconclusive results are not listed.
# System: P388 leukemia ip, CD2F1 mice, survival T/C
# Test: NCI In Vivo Anticancer Drug Screen. Data for tumor model P388 Leukemia (intraperitoneal) in CD2F1 (CDF1) mice
# Details: endpoint: median survival time, higher = longer survival
# Procedure, shortened: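 Mice carrying the transplanted tumor received test compound or vehicle. Survival was recorded in each group, and the value is the treated-group measurement divided by that of the vehicle-treated control group.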
# [1] = dose: 50.0 mg/kg/injection, schedule: Q01DX005 (ip), vehicle: Klucel (hydroxypropylcellulose) (HPC)
# [2] = dose: 100.0 mg/kg/injection, schedule: Q01DX005 (ip), vehicle: Klucel (hydroxypropylcellulose) (HPC)
# [3] = dose: 200.0 mg/kg/injection, schedule: Q01DX005 (ip), vehicle: Klucel (hydroxypropylcellulose) (HPC)
# [4] = dose: 50.0 mg/kg/injection, schedule: Q01DX005 (ip), vehicle: saline
# [5] = dose: 100.0 mg/kg/injection, schedule: Q01DX005 (ip), vehicle: saline
# [6] = dose: 200.0 mg/kg/injection, schedule: Q01DX005 (ip), vehicle: saline
# [7] = dose: 6.25 mg/kg/injection, schedule: Q01DX009 (ip), vehicle: other
# [8] = dose: 12.5 mg/kg/injection, schedule: Q01DX009 (ip), vehicle: other
# [9] = dose: 25.0 mg/kg/injection, schedule: Q01DX009 (ip), vehicle: other
# [10] = dose: 50.0 mg/kg/injection, schedule: Q01DX009 (ip), vehicle: other
# [11] = dose: 100.0 mg/kg/injection, schedule: Q01DX009 (ip), vehicle: other
# [12] = dose: 50.0 mg/kg/injection, schedule: Q01DX009 (ip), vehicle: saline with Tween-80
# [13] = dose: 100.0 mg/kg/injection, schedule: Q01DX009 (ip), vehicle: saline with Tween-80
# [14] = dose: 25.0 mg/kg/injection, schedule: Q01DX009 (ip), vehicle: saline with Tween-80
# [15] = dose: 50.0 mg/kg/injection, schedule: Q01DX009 (ip), vehicle: saline
# [16] = dose: 100.0 mg/kg/injection, schedule: Q01DX009 (ip), vehicle: saline
# [17] = dose: 200.0 mg/kg/injection, schedule: Q01DX009 (ip), vehicle: saline
structure (smiles),measurement,setting,value
COc1nc(COC(=O)NC(C)C)c(COC(=O)NC(C)C)n1C,T/C,"dose: 12.5 mg/kg/injection, schedule: Q01DX005 (ip), vehicle: Klucel (hydroxypropylcellulose) (HPC)",109 % of control
same,T/C,"dose: 25.0 mg/kg/injection, schedule: Q01DX005 (ip), vehicle: Klucel (hydroxypropylcellulose) (HPC)",118 % of control
same,T/C,[1],123 % of control
same,T/C,[2],166 % of control
same,T/C,[3],189 % of control
same,T/C,"dose: 400.0 mg/kg/injection, schedule: Q01DX005 (ip), vehicle: Klucel (hydroxypropylcellulose) (HPC)",196 % of control
CC(=O)OCC(OC(C)=O)C(Cl)CCl (stereo not drawn),T/C,[4],103 % of control
same,T/C,[5],101 % of control
same,T/C,[6],107 % of control
c1ccc(C2=NN(c3ccccc3)C3C4CCC(C4)C23)cc1 (stereo not drawn),T/C,"dose: 100.0 mg/kg/injection, schedule: Q04DX003 (ip), vehicle: Klucel (hydroxypropylcellulose) (HPC)",93 % of control
same,T/C,"dose: 200.0 mg/kg/injection, schedule: Q04DX003 (ip), vehicle: Klucel (hydroxypropylcellulose) (HPC)",93 % of control
same,T/C,"dose: 400.0 mg/kg/injection, schedule: Q04DX003 (ip), vehicle: Klucel (hydroxypropylcellulose) (HPC)",91 % of control
CC[C@@H]1C[C@@H]2CN3CCc4c([nH]c5ccc(OC)c(Cc6ccc(OC)c(OC)c6)c45)C(C(=O)OC)(C2)C13,T/C,"dose: 2.5 mg/kg/injection, schedule: Q01DX009 (ip), vehicle: Klucel (hydroxypropylcellulose) (HPC)",88 % of control
same,T/C,"dose: 5.0 mg/kg/injection, schedule: Q01DX009 (ip), vehicle: Klucel (hydroxypropylcellulose) (HPC)",103 % of control
same,T/C,"dose: 10.0 mg/kg/injection, schedule: Q01DX009 (ip), vehicle: Klucel (hydroxypropylcellulose) (HPC)",92 % of control
same,T/C,"dose: 20.0 mg/kg/injection, schedule: Q01DX009 (ip), vehicle: Klucel (hydroxypropylcellulose) (HPC)",95 % of control
CCOC(=O)C1CC1C1=C(C)c2cc3[n-]c(cc4nc(cc5[n-]c(cc1n2)c(C)c5CCC(=O)OC)C(CCC(=O)OC)=C4C)c(C)c3C1CC1C(=O)OCC.[Cl-].[Fe+3] (stereo not drawn),T/C,[1],102 % of control
same,T/C,[2],86 % of control
same,T/C,[3],100 % of control
CCCCCCCCCC1OCN2CCCCC12 (stereo not drawn),T/C,[4],105 % of control
same,T/C,[5],96 % of control
same,T/C,[6],115 % of control
COC(=O)C1c2cc3c(c(O)c2C(OC)CC1(C)O)C(=O)c1c(O)cc2c(c1C3=O)OC1OC2(C)C(O)C(N(C)C)C1O (stereo not drawn),T/C,"dose: 3.16 mg/kg/injection, schedule: Q01DX009 (ip), vehicle: other",156 % of control
same,T/C,"dose: 5.0 mg/kg/injection, schedule: Q01DX009 (ip), vehicle: other",161 % of control
same,T/C,[7],168 % of control
same,T/C,"dose: 10.0 mg/kg/injection, schedule: Q01DX009 (ip), vehicle: other",171 % of control
same,T/C,[8],168 % of control
same,T/C,"dose: 20.0 mg/kg/injection, schedule: Q01DX009 (ip), vehicle: other",171 % of control
same,T/C,[9],198 % of control
same,T/C,"dose: 40.0 mg/kg/injection, schedule: Q01DX009 (ip), vehicle: other",117 % of control
Cc1c(N)nc(C(CC(N)=O)NCC(N)C(N)=O)nc1C(=O)NC(C(=O)NC(C)C(O)C(C)C(=O)NC(C(=O)NCCc1nc(-c2nc(C(=O)NCCCNC(C)c3ccccc3)cs2)cs1)C(C)O)C(OC1OC(CO)C(O)C(O)C1OC1OC(CO)C(O)C(OC(N)=O)C1O)c1cnc[nH]1 (stereo not drawn),T/C,"dose: 0.25 mg/kg/injection, schedule: Q01DX009 (ip), vehicle: water",104 % of control and 95 % of control
same,T/C,"dose: 0.5 mg/kg/injection, schedule: Q01DX009 (ip), vehicle: water",100 % of control and 111 % of control and 88 % of control
same,T/C,"dose: 1.0 mg/kg/injection, schedule: Q01DX009 (ip), vehicle: water",103 % of control and 104 % of control and 118 % of control
same,T/C,"dose: 2.0 mg/kg/injection, schedule: Q01DX009 (ip), vehicle: water",100 % of control and 113 % of control
same,T/C,"dose: 4.0 mg/kg/injection, schedule: Q01DX009 (ip), vehicle: water",114 % of control and 118 % of control
same,T/C,"dose: 8.0 mg/kg/injection, schedule: Q01DX009 (ip), vehicle: water",100 % of control
COC(=O)C1Cc2c([nH]c3ccccc23)C(C)(C)N1 (stereo not drawn),T/C,"dose: 25.0 mg/kg/injection, schedule: Q01DX009 (ip), vehicle: suspension in saline",99 % of control
same,T/C,"dose: 50.0 mg/kg/injection, schedule: Q01DX009 (ip), vehicle: suspension in saline",93 % of control
same,T/C,"dose: 100.0 mg/kg/injection, schedule: Q01DX009 (ip), vehicle: suspension in saline",93 % of control
C[n+]1c(-c2cccc(-c3ccccc3)c2)c2cc(N)ccc2c2ccccc21,T/C,"dose: 1.56 mg/kg/injection, schedule: Q01DX009 (ip), vehicle: other",124 % of control
Cc1nc(Cl)c(C)c(C(=O)O)n1,T/C,[7],117 % of control
same,T/C,[8],114 % of control
same,T/C,[9],107 % of control
same,T/C,[10],99 % of control
same,T/C,[11],98 % of control
CC(=O)C1(O)Cc2c(O)c3c(c(O)c2C(OC2CC(N)C(O)C(C)O2)C1C)C(=O)c1ccccc1C3=O (stereo not drawn),T/C,"dose: 0.6 mg/kg/injection, schedule: Q04DX003 (ip), vehicle: water",100 % of control
same,T/C,"dose: 1.2 mg/kg/injection, schedule: Q04DX003 (ip), vehicle: water",108 % of control
same,T/C,"dose: 2.4 mg/kg/injection, schedule: Q04DX003 (ip), vehicle: water",108 % of control
same,T/C,"dose: 4.8 mg/kg/injection, schedule: Q04DX003 (ip), vehicle: water",106 % of control
same,T/C,"dose: 9.6 mg/kg/injection, schedule: Q04DX003 (ip), vehicle: water",118 % of control
CSc1nc2n(Cc3cn(C)c(=O)n(C)c3=O)cc(C)cc-2c(=O)n1,T/C,"dose: 100.0 mg/kg/injection, schedule: Q01DX001 (ip), vehicle: saline with Tween-80",96 % of control
same,T/C,"dose: 200.0 mg/kg/injection, schedule: Q01DX001 (ip), vehicle: saline with Tween-80",94 % of control
same,T/C,"dose: 400.0 mg/kg/injection, schedule: Q01DX001 (ip), vehicle: saline with Tween-80",94 % of control
CC1C2Cc3ccc(O)cc3C1(C)CCN2CCC(=O)c1ccccc1 (stereo not drawn),T/C,[1],92 % of control
same,T/C,[2],88 % of control
same,T/C,[3],88 % of control
NCCc1c[nH]c2ccc(O)cc12 (tested in a mixture with another compound),T/C,[10],113 % of control
same,T/C,"dose: 60.0 mg/kg/injection, schedule: Q01DX005 (ip), vehicle: saline",102 % of control
same,T/C,[11],109 % of control
same,T/C,"dose: 120.0 mg/kg/injection, schedule: Q01DX005 (ip), vehicle: saline",100 % of control
same,T/C,"dose: 200.0 mg/kg/injection, schedule: Q01DX009 (ip), vehicle: other",91 % of control
same,T/C,"dose: 240.0 mg/kg/injection, schedule: Q01DX005 (ip), vehicle: saline",99 % of control
CC1(O)CC[N+](C)(C)CC1c1ccccc1 (stereo not drawn),T/C,"dose: 50.0 mg/kg/injection, schedule: Q04DX003 (ip), vehicle: saline",118 % of control
same,T/C,"dose: 100.0 mg/kg/injection, schedule: Q04DX003 (ip), vehicle: saline",113 % of control
O=C1OC2=CC=CC=CC2C12C1C=CC=CC12 (stereo not drawn),T/C,[12],100 % of control
same,T/C,[13],105 % of control
same,T/C,"dose: 200.0 mg/kg/injection, schedule: Q01DX009 (ip), vehicle: saline with Tween-80",104 % of control
CCOc1ccccc1N=Cc1c2ccccc2cc2ccccc12,T/C,"dose: 12.5 mg/kg/injection, schedule: Q01DX009 (ip), vehicle: saline with Tween-80",100 % of control
same,T/C,[14],95 % of control
same,T/C,[12],98 % of control and 86 % of control
same,T/C,[13],89 % of control
Cn1ccnc1Sc1ccnc(Sc2ccc([N+](=O)[O-])cc2[N+](=O)[O-])n1,T/C,[15],108 % of control
same,T/C,[16],96 % of control
same,T/C,[17],87 % of control
c1ccc(-c2cc(-c3cc(-c4ccccn4)[nH]n3)n[nH]2)nc1,T/C,"dose: 60.0 mg/kg/injection, schedule: Q01DX005 (ip), vehicle: saline + Tween-80 + alcohol",91 % of control
same,T/C,"dose: 120.0 mg/kg/injection, schedule: Q01DX005 (ip), vehicle: saline + Tween-80 + alcohol",94 % of control
same,T/C,"dose: 240.0 mg/kg/injection, schedule: Q01DX005 (ip), vehicle: saline + Tween-80 + alcohol",104 % of control
O=C/C=C/c1ccc([N+](=O)[O-])cc1Cl,T/C,[14],104 % of control
same,T/C,[12],106 % of control
same,T/C,[15],115 % of control
same,T/C,[13],106 % of control
same,T/C,[16],124 % of control
same,T/C,[17],124 % of control
